Assay results: patent US20260274892A1, “MACROCYCLIC BROAD SPECTRUM ANTIBIOTICS” (RQx Pharmaceuticals, Inc., priority 2017, published 2026)

Experiments:
[1] = tested on: Escherichia coli ATCC 25922; assay: Minimum inhibitory concentration (MIC), CLSI broth micro-dilution, E. coli; assay type: cell-based; settings: Escherichia coli, ATCC25922, 22 h
Summary of the method: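 Colonies grown 20 h at 35° C on Trypticase Soy agar (MRSA) or Luria agar (E. coli) were suspended in cation-adjusted Mueller Hinton broth with 0.002% Tween-80. Suspensions were added at OD600 0.0005 to 10-point twofold compound dilutions, then incubated 22 h at 35° C.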

[2] = tested on: Methicillin Resistant Staphylococcus aureus strain USA 200; assay: Minimum inhibitory concentration (MIC), CLSI broth micro-dilution, S. aureus; assay type: cell-based; settings: Staphylococcus aureus, MRSA / USA200; Table 6; MRSA USA 200; cation adjusted Mueller Hinton Broth + 0.002% Tween-80; 35° C., 22 hours
Method: In vitro antimicrobial activity of each compound was determined by measuring minimal inhibitor concentrations (MICs) using the broth micro-dilution technique as approved by the Clinical and Laboratory Standards Institute (CLSI) (Methods for Dilution Antimicrobial Susceptibility Tests for Bacteria that Grow Aerobically; Approved Standard-Eighth Edition. CLSI document M07-A8. Wayne, PA: Clinical and Laboratroy Standards; 2009). Antibacterial activity was measure against two strains of bacteria: a Methicillin Resistant Staphylococcus aureus strain USA 200, (S. aureus) and Escherichia coli ATCC 25922 (E. coli), a clinically relevant Gram-negative strain. Cells were inoculated onto plates of Trypyticase Soy Agar or Luria Agar respectively and grown at 35° C. for 20 hours. Inocula suspensions were prepared by scraping cells into 1 mL of testing media (cation adjusted Mueller Hinton Broth supplemented with 0.002% v/v Tween-80) and diluting to a final OD600nm of 0.01.
Test compounds were prepared in DMSO at a concentration of 10 mg/mL. In protocol 1, the compound stocks were diluted into testing media at a concentration of 64 µg/ml and serial 2-fold dilutions were made in the same media, in 96-well U bottom microtiter dishes, for a total of 10 compound concentrations. In protocol 2, the compound stocks were diluted into testing media at a concentration of 4 µg/mL and serial 2-fold dilutions were made in the same media, in 96-well U bottom microtiter dishes, for a total of 10 compound concentrations. In protocol 3, compound stocks were diluted into testing media at a concentration of 0.5 μg/mL, with serial 2-fold dilutions conducted as described above. In protocol 4, compound stocks were diluted into testing media at a concentration of […], with serial 2-fold dilutions conducted as described above. Inocula suspensions were added to the 2-fold serial dilutions of test compounds to a final density of GD OD600nm of 0.0005 and incubated at 35° C. for 22 hours.

[3] = Table 6, cation adjusted Mueller Hinton Broth + 0.002% Tween-80, 35° C.
[4] = Table 7, cation adjusted Mueller Hinton Broth + 0.002% Tween-80, 35° C.

Compound	MIC [1, 3] [µM]	MIC [2] [µM]	MIC [1, 4] [µM]
CCCCc1ccc(-c2ccn(-c3ccc(C(=O)N[C@@H](CCN)C(=O)N(C)[C@@H]4C(=O)N[C@@H](C)C(=O)N[C@H](C(=O)NCC#N)Cc5ccc(OCCN)c(c5)-c5cc4ccc5OCCN)c(C)c3)n2)cc1 (racemic) [Compound 201, rac-(8S,11S,14S)-3,18-bis(2-aminoethoxy)-N-(cyanomethyl)-11-methyl-14-[methyl-[rac-(2S)-4-amino-2-[[4-[3-(4-butylphenyl)pyrazol-1-yl]-2-methyl-benzoyl]amino]butanoyl]amino]-10,13-dioxo-9,12-diazatricyclo[13.3.1.12,6]icosa-1(18),2(20),3,5,15(19),16-hexaene-8-carboxamide]	0.42	0.062	
Cc1cc(-c2ccc(S(F)(F)(F)(F)F)cc2)ccc1C(=O)N[C@@H](CCN)C(=O)N(C)[C@@H]1C(=O)N[C@@H](C)C(=O)N[C@H](C(=O)NCC#N)Cc2ccc(OCCN)c(c2)-c2cc1ccc2OCCN (racemic) [Compound 202, rac-(8S,11S,14S)-3,18-bis(2-aminoethoxy)-N-(cyanomethyl)-11-methyl-14-[methyl-[rac-(2S)-4-amino-2-[[2-methyl-4-[4-(pentafluoro-lambda6-sulfanyl)phenyl]benzoyl]amino]butanoyl]amino]-10,13-dioxo-9,12-diazatricyclo[13.3.1.12,6]icosa-1(18),2(20),3,5,15(19),16-hexaene-8-carboxamide]	0.37	0.023	
Cc1cc(-c2ccc(C(C)(C)C)cc2)ccc1C(=O)N[C@@H](CCN)C(=O)N(C)[C@@H]1C(=O)N[C@@H](C)C(=O)N[C@H](C(=O)NCC#N)Cc2ccc(OCCN)c(c2)-c2cc1ccc2OCCN (racemic) [Compound 203, rac-(8S,11S,14S)-3,18-bis(2-aminoethoxy)-N-(cyanomethyl)-11-methyl-14-[methyl-[rac-(2S)-4-amino-2-[[4-(4-tert-butylphenyl)-2-methyl-benzoyl]amino]butanoyl]amino]-10,13-dioxo-9,12-diazatricyclo[13.3.1.12,6]icosa-1(18),2(20),3,5,15(19),16-hexaene-8-carboxamide]	0.13	0.031	
CCCCCCc1ncc(-c2ccc(C(=O)N[C@@H](CCN)C(=O)N(C)[C@@H]3C(=O)N[C@@H](C)C(=O)N[C@H](C(=O)NCC#N)Cc4ccc(OCCN)c(c4)-c4cc3ccc4OCCN)c(C)c2)cn1 (racemic) [Compound 204, rac-(8S,11S,14S)-3,18-bis(2-aminoethoxy)-N-(cyanomethyl)-11-methyl-14-[methyl-[rac-(2S)-4-amino-2-[[4-(2-hexylpyrimidin-5-yl)-2-methyl-benzoyl]amino]butanoyl]amino]-10,13-dioxo-9,12-diazatricyclo[13.3.1.12,6]icosa-1(18),2(20),3,5,15(19),16-hexaene-8-carboxamide]	2.1	0.032	
CCCCCc1ccc(-c2ccc(C(=O)N[C@@H](CCN)C(=O)N(C)[C@@H]3C(=O)N[C@@H](C)C(=O)N[C@H](C(=O)NCC#N)Cc4ccc(OCCN)c(c4)-c4cc3ccc4OCCN)c(C)n2)cc1 (racemic) [Compound 205, rac-(8S,11S,14S)-3,18-bis(2-aminoethoxy)-N-(cyanomethyl)-11-methyl-14-[methyl-[rac-(2S)-4-amino-2-[[2-methyl-6-(4-pentylphenyl)pyridine-3-carbonyl]amino]butanoyl]amino]-10,13-dioxo-9,12-diazatricyclo[13.3.1.12,6]icosa-1(18),2(20),3,5,15(19),16-hexaene-8-carboxamide]	0.066	0.012	
Cc1nc(-c2ccc(C(C)(C)C)cc2)ccc1C(=O)N[C@@H](CCN)C(=O)N(C)[C@@H]1C(=O)N[C@@H](C)C(=O)N[C@H](C(=O)NCC#N)Cc2ccc(OCCN)c(c2)-c2cc1ccc2OCCN (racemic) [Compound 206, rac-(8S,11S,14S)-3,18-bis(2-aminoethoxy)-N-(cyanomethyl)-11-methyl-14-[methyl-[rac-(2S)-4-amino-2-[[6-(4-tert-butylphenyl)-2-methyl-pyridine-3-carbonyl]amino]butanoyl]amino]-10,13-dioxo-9,12-diazatricyclo[13.3.1.12,6]icosa-1(18),2(20),3,5,15(19),16-hexaene-8-carboxamide]	0.13	0.025	
CCCCc1ccc(-c2ccc(C(=O)N[C@@H](CCN)C(=O)N(C)[C@@H]3C(=O)N[C@@H](C)C(=O)N[C@H](C(=O)NCC#N)Cc4ccc(OCCN)c(c4)-c4cc3ccc4OCCN)c(C)n2)cc1 (racemic) [Compound 207, rac-(8S,11S,14S)-3,18-bis(2-aminoethoxy)-N-(cyanomethyl)-11-methyl-14-[methyl-[rac-(2S)-4-amino-2-[[6-(4-butylphenyl)-2-methyl-pyridine-3-carbonyl]amino]butanoyl]amino]-10,13-dioxo-9,12-diazatricyclo[13.3.1.12,6]icosa-1(18),2(20),3,5,15(19),16-hexaene-8-carboxamide]	0.1	0.017	
CCCc1ccc(-c2ccc(C(=O)N[C@@H](CCN)C(=O)N(C)[C@@H]3C(=O)N[C@@H](C)C(=O)N[C@H](C(=O)NCC#N)Cc4ccc(OCCN)c(c4)-c4cc3ccc4OCCN)c(C)n2)cc1 (racemic) [Compound 208, rac-(8S,11S,14S)-3,18-bis(2-aminoethoxy)-N-(cyanomethyl)-11-methyl-14-[methyl-[rac-(2S)-4-amino-2-[[2-methyl-6-(4-propylphenyl)pyridine-3-carbonyl]amino]butanoyl]amino]-10,13-dioxo-9,12-diazatricyclo[13.3.1.12,6]icosa-1(18),2(20),3,5,15(19),16-hexaene-8-carboxamide]	0.14	0.017	
Cc1nc(-c2ccc(C(C)(C)C)cc2)nc(C)c1C(=O)N[C@@H](CCN)C(=O)N(C)[C@@H]1C(=O)N[C@@H](C)C(=O)N[C@H](C(=O)NCC#N)Cc2ccc(OCCN)c(c2)-c2cc1cc(OCCN)c2O [Compound 583, (8S,11S,14S)-14-[[(2S)-4-amino-2-[[2-(4-tert-butylphenyl)-4,6-dimethyl-pyrimidine-5-carbonyl]amino]butanoyl]-methyl-amino]-3,17-bis(2-aminoethoxy)-N-(cyanomethyl)-18-hydroxy-11-methyl-10,13-dioxo-9,12-diazatricyclo[13.3.1.12,6]icosa-1(18),2(20),3,5,15(19),16-hexaene-8-carboxamide]			0.17
COc1c(NCCN)cc2cc1-c1cc(ccc1O)C[C@@H](C(=O)NCC#N)NC(=O)[C@H](C)NC(=O)[C@H]2N(C)C(=O)[C@H](CCN)NC(=O)c1c(C)nc(-c2ccc(C(C)(C)C)cc2)nc1C [Compound 630, (8S,11S,14S)-14-[[(2S)-4-amino-2-[[2-(4-tert-butylphenyl)-4,6-dimethyl-pyrimidine-5-carbonyl]amino]butanoyl]-methyl-amino]-17-(2-aminoethylamino)-N-(cyanomethyl)-3-hydroxy-18-methoxy-11-methyl-10,13-dioxo-9,12-diazatricyclo[13.3.1.12,6]icosa-1(18),2(20),3,5,15(19),16-hexaene-8-carboxamide]			0.25
Cc1nc(-c2ccc(C(C)(C)C)cc2)nc(C)c1C(=O)N[C@@H](CCN)C(=O)N(C)[C@@H]1C(=O)N[C@@H](C)C(=O)N[C@H](C(=O)NCC#N)Cc2ccc(O)c(c2)-c2cc1cc(OCCN)c2O [Compound 632, (8S,11S,14S)-14-[[(2S)-4-amino-2-[[2-(4-tert-butylphenyl)-4,6-dimethyl-pyrimidine-5-carbonyl]amino]butanoyl]-methyl-amino]-17-(2-aminoethoxy)-N-(cyanomethyl)-3,18-dihydroxy-11-methyl-10,13-dioxo-9,12-diazatricyclo[13.3.1.12,6]icosa-1(18),2(20),3,5,15(19),16-hexaene-8-carboxamide]			0.5
Cc1nc(-c2ccc(C(C)(C)C)cc2)nc(C)c1C(=O)N[C@@H](CCN)C(=O)N(C)[C@@H]1C(=O)N[C@@H](C)C(=O)N[C@H](C(=O)NCC#N)Cc2ccc(O)c(c2)-c2cc1cc(OCCN)c2OCCN [Compound 633, (8S,11S,14S)-14-[[(2S)-4-amino-2-[[2-(4-tert-butylphenyl)-4,6-dimethyl-pyrimidine-5-carbonyl]amino]butanoyl]-methyl-amino]-17,18-bis(2-aminoethoxy)-N-(cyanomethyl)-3-hydroxy-11-methyl-10,13-dioxo-9,12-diazatricyclo[13.3.1.12,6]icosa-1(18),2(20),3,5,15(19),16-hexaene-8-carboxamide]			0.047
